{
  "source": "paper PMC7332481",
  "about": "“Ecotoxicity screening evaluation of selected pharmaceuticals and their transformation products towards various organisms” (Environmental Science and Pollution Research International, 2020)",
  "key": {"L. minor": {"system": "L. minor", "conditions": "cited from earlier work"}, "Lemna minor": {"system": "Lemna minor", "test": "L. minor growth inhibition test", "conditions": "Lemna minor; for EC50: 168 h, read-out: EC50 L. minor (with confidence interval 2.5–97.5%), growth rate inhibition by frond area, 7 days", "experimental": "(§1) All tests were carried out in accordance with the OECD or ISO guidelines. In general the experimental part was divided into three main steps: (i) determination of the toxicity of the native forms of pharmaceuticals (their racemic mixtures), (ii) toxicity evaluation of the selected TPs of these pharmaceuticals, and (iii) preliminary toxicity assessment of the enantiomers of selected pharmaceuticals. For each assay, range-finding tests were conducted, in order to determine the range of concentrations for the definitive tests. The main tests were repeated three times in at least two parallel replicates, with a minimum of five concentrations for native forms of the selected pharmaceuticals (including their enantiomers). The exact number of replicates and concentrations tested was included in the description of each test. […] However, TPs were tested in a different manner; first, the tests were carried out at the limit concentration of 100 mg L^−1. […] Such approach was applied in order to observe the relative toxicity of the selected TP and its native form.\n(§2) Dose-response curves were fitted using a linear logistic or logistic model (the model giving the best fit was chosen) (https://cran.r-project.org/web/packages/drfit/drfit.pdf). The mathematic formulas applied for this purpose are presented and described in the Supplementary Material. The EC50 values were given since log EC50 is a model parameter in the logistic as well as in linear logistic model.\nOne week before the assay, the inoculum cultures were prepared; eight healthy plants were placed into a new portion of the medium. Two days before the test, the plants were transferred to a fresh medium, in order to supplement nutrients and to eliminate plant metabolites. The experiments were performed in six-well plates under the conditions described above. The pH value of the Steinberg medium and all solutions was 5.5 (± 0.5). Every test included six different concentrations of compound and six controls in three replicates. The test started with one plant consisting of three fronds and the measured endpoint was the inhibition of growth rate determined by comparing the frond area (mm^2) for the treated plants and untreated controls."}, "Vibrio fischeri": {"system": "Vibrio fischeri", "test": "microbe, parasite or virus in culture", "type": "cell-based", "conditions": "Aliivibrio fischeri; for EC50: 0.5 h, read-out: EC50 V. fischeri (with confidence interval 2.5–97.5%)", "experimental": "(§3) Stock solutions and dilutions were prepared in 2% NaCl in 0.02 M phosphate buffer, pH 7. The freeze-dried bacteria were rehydrated prior to testing in a reactivation solution. Culture suspensions and diluted samples were pre-incubated at 15 °C for 15 min. After the initial luminescence was measured, 0.5 mL of the culture suspension was mixed with the same volume of a diluted sample. The final bioluminescence was measured after 30 min. Incubation was kept at 15 °C (LUMIStox 300 meter, Dr. Lange GmbH, Berlin, Germany). The relative toxicity of the samples was expressed as a percentage of luminescence inhibition compared to the controls.\nas §3, with “m,” for “meter,”"}, "Daphnia magna": {"system": "Daphnia magna", "test": "D. magna acute immobilization test", "type": "in vivo", "conditions": "Daphnia magna; for EC50: immobilization, 48 h, read-out: EC50 D. magna (with confidence interval 2.5–97.5%); for mortality at 70 µg/mL: read-out: Immobilization", "experimental": "as §1, §2\nFive pre-fed test organisms were incubated with the studied compounds diluted in 10 mL of test media in glass test vessels at 20 °C (± 1 °C) in darkness for 48 h. Each test consisted of a control and five different concentrations of the studied compound in four parallel replicates. In order to achieve a full dose-response relationship, the concentration series covered the range of 0–100% immobilization. The number of immobilized or dead organisms was checked after 24 and 48 h. The negative effect of exposure to the tested compounds was expressed by the number of immobilized organisms compared to the controls."}, "Arthrobacter globiformis": {"system": "Arthrobacter globiformis", "test": "A. globiformis dehydrogenase inhibition test (version without soil)", "conditions": "for EC50: read-out: EC50 A. globiformis", "experimental": "as §1\nThe test strain was obtained from the German Collection of Microorganisms (DSMZ). A version of the test without soil was performed. Bacteria was grown in a sterile medium containing 10 g L^−1 peptone from casein, 5 g L^−1 yeast extract, 5 g L^−1 glucose, and 5 g L^−1 NaCl. For the test, the medium was diluted in a ratio of 1:3 in water. The inoculum was the bacteria in a log-growth phase. Cell density was adjusted to 1 × 10^8 cells mL^−1, which corresponds to an optical density (OD600nm) of 0.4. The test was performed in 24-well microplates. Each well contained 1 mL of solution of the tested compound in water and 1 mL of bacterial inoculum. Next, the plates were incubated for 2 h at 30 °C on a horizontal shaker with a speed of 100 rpm. To each well, a portion of 0.6 mL of the redox active dye resazurine (45 mg L^−1) dissolved in buffer was added. The microplates were further incubated for 1 h (30 °C, 100 rpm). To stop the reduction process, the plates were centrifuged at 3600g for 10 min. Aliquots (300 μl) of supernatant from each well were immediately transferred to the wells of a 96-well microplate in triplicates. Finally, the dehydrogenase activity was determined by measuring the formation of resorufin from resazurine using a fluorimeter ([…]). Dehydrogenase inhibition was calculated using Eq. 1.\nwhere FBTS is the measured fluorescence of the blank (medium) with the tested substance, FTS is the measured fluorescence of the sample, FBNC is the measured fluorescence of the blank, and FNC is the measured fluorescence of the negative control (with bacteria)."}, "Raphidocelis subcapitata": {"system": "Raphidocelis subcapitata", "test": "R. subcapitata reproduction (growth) inhibition test", "type": "cell-based", "conditions": "Raphidocelis subcapitata, 72 h, growth inhibition by cell counts, 72 h; read-out: EC50 R. subcapitata (with confidence interval 2.5–97.5%)", "experimental": "as §1, §2\nTest organisms were provided from Algal Culture Collection (Universität Göttingen, Germany). […] The light-dark cycle was different from the OECD guidelines, and it was introduced to imitate natural growth conditions. In order to ensure that the algae are in the exponential growth phase when used to inoculate the test solutions, the stock culture was diluted three times a week. The test was carried out in 25 mL suspension cell culture flasks (Nunc) (working volume 10 mL). All operations were performed under sterile conditions. The initial cell concentration was 5 × 10^4 cells mL^−1. Eight different concentrations of every compound in three replicates and a minimum of six controls were used in each test. […] The test flasks were incubated on a shaker with a speed of approx. 75 rpm at the temperature and light conditions described above. Growth inhibition was calculated using the cell counts of the treated samples in relation to the untreated controls after 72 h of exposure. The cells were counted with the use of CASY TT Cell counter & analyzer."}, "algae": {"system": "algae", "conditions": "cited from earlier work"}, "duckweed": {"system": "duckweed", "conditions": "ref Cleuvers 2003; cited from earlier work"}, "V. fischeri": {"system": "V. fischeri", "conditions": "cited from earlier work"}, "[1]": {"conditions": "ref US Food and Drug Administration 1996"}},
  "note": "Like-named read-outs stand apart in the source and are kept apart here.",
  "data": [
    {"smiles": "O=C(O)Cc1ccccc1Nc1c(Cl)cccc1Cl", "note": "[DIC, Diclofenac]", "values": [
      {"measurement": "EC50 L. minor", "setting": "L. minor; ref Quinn et al. (2011)", "value": 47.6, "unit": "µg/mL"},
      {"measurement": "classification on the basis of EC50 values (EC 93/67/EEC)", "setting": "aquatic organisms", "value": "harmful"},
      {"measurement": "EC50", "setting": "Lemna minor", "value": 16.5, "unit": "µg/mL"},
      {"measurement": "inhibition at 15 µg/mL", "setting": "Lemna minor; read-out: Growth inhibition of L. minor", "value": 33, "unit": "%"},
      {"measurement": "EC50", "setting": "Vibrio fischeri", "value": 11.6, "unit": "µg/mL"},
      {"measurement": "inhibition at 10 µg/mL", "setting": "Vibrio fischeri; read-out: Luminescence inhibition", "value": 45, "unit": "%"},
      {"measurement": "mortality at 60 µg/mL", "setting": "Daphnia magna; concentration 60 mg L^−1", "value": 50, "unit": "%"},
      {"measurement": "EC50", "setting": "Daphnia magna", "value": 59.1, "unit": "µg/mL"},
      {"measurement": "EC50", "setting": "Arthrobacter globiformis", "value": "> 100", "unit": "µg/mL"},
      {"measurement": "inhibition at 100 µg/mL", "setting": "Arthrobacter globiformis; read-out: inhibition of bacterial growth (A. globiformis)", "value": 30, "unit": "%"}
    ]},
    {"smiles": "COc1ccc2cc([C@H](C)C(=O)O)ccc2c1", "note": "[NAP, Naproxen]", "values": [
      {"measurement": "EC50", "setting": "Raphidocelis subcapitata", "value": 27.1, "unit": "µg/mL"},
      {"measurement": "EC50, 72h algae", "setting": "algae; 72 h, ref Minguez et al. 2016", "value": 44.40, "unit": "µg/mL"},
      {"measurement": "EC50, 96h algae", "setting": "algae; 96 h, ref Isidori et al. 2005b", "value": 31.82, "unit": "µg/mL"},
      {"measurement": "classification on the basis of EC50 values (EC 93/67/EEC)", "setting": "aquatic organisms; for the organisms named in the sentence", "value": "harmful"},
      {"measurement": "EC50", "setting": "Lemna minor", "value": 20.7, "unit": "µg/mL"},
      {"measurement": "EC50", "setting": "Vibrio fischeri; luminescence inhibition, 30 min, 15 °C", "value": 25.2, "unit": "µg/mL"},
      {"measurement": "inhibition at 25 µg/mL", "setting": "Vibrio fischeri; concentration 25 mg L^−1, read-out: Luminescence inhibition", "value": 51, "unit": "%"},
      {"measurement": "mortality at 70 µg/mL", "setting": "Daphnia magna; concentration 70 mg L^−1", "value": 32, "unit": "%"},
      {"measurement": "EC50", "setting": "Daphnia magna", "value": 74.4, "unit": "µg/mL"},
      {"measurement": "EC50", "setting": "Arthrobacter globiformis", "value": "> 100", "unit": "µg/mL"},
      {"measurement": "EC50 duckweed", "setting": "duckweed", "value": 24, "unit": "µg/mL"}
    ]},
    {"smiles": "COc1cccc(C2(O)CCCCC2CN(C)C)c1", "note": "(stereo not shown) [TRA, Tramadol]", "values": [
      {"measurement": "toxicity to L. minor", "setting": "L. minor; [1]", "value": "not toxic"},
      {"measurement": "toxic effect towards V. fischeri", "setting": "V. fischeri; at the concentration of 100 mg L^−1, ref Romanucci et al. (2019)", "value": "did not observed any toxic effect"},
      {"measurement": "toxicity to V. fischeri", "setting": "V. fischeri; [1]", "value": "not toxic"},
      {"measurement": "mortality at 70 µg/mL", "setting": "Daphnia magna", "value": 44, "unit": "%"}
    ]}
  ]
}
